Measurements: ChEMBL document CHEMBL3112450, “Synthesis and in vitro antitumor evaluation of primary amine substituted quinazoline linked benzimidazole” (Bioorg Med Chem Lett, 2014)

How the values were obtained:
Type in all cases: functional
[1] = Cytotoxicity against human NCI-ADR-RES cells assessed as cell growth at 10^-8 M after 48 hrs by SRB assay; settings: read-out: Activity
NCI-H322M = assay: Cytotoxicity against human NCI-H322M cells after 48 hrs by SRB assay
SF-295 = assay: Cytotoxicity against human SF295 cells assessed as cell growth at 10^-4 M after 48 hrs by SRB assay; settings: SF-295, 48 h, read-out: Activity
MDA-MB-435 = assay: Cytotoxicity against human MDA-MB-435 cells assessed as cell growth at 10^-7 M after 48 hrs by SRB assay; settings: MDA-MB-435, 48 h, read-out: Activity
IGROV-1 = assay: Cytotoxicity against human IGROV1 cells assessed as cell growth at 10^-4 M after 48 hrs by SRB assay; settings: IGROV-1, 48 h, read-out: Activity
OVCAR-3 [2] = assay: Cytotoxicity against human OVCAR3 cells assessed as cell growth at 10^-7 M after 48 hrs by SRB assay; settings: OVCAR-3, 48 h, read-out: Activity
U-251 [3] = assay: Cytotoxicity against human U251 cells assessed as cell growth at 10^-8 M after 48 hrs by SRB assay; settings: U-251, 48 h, read-out: Activity
KM12 [4] = assay: Cytotoxicity against human KM12 cells assessed as cell growth at 10^-7 M after 48 hrs by SRB assay; settings: KM12, 48 h, read-out: Activity
MCF7 = assay: Cytotoxicity against human MCF7 cells assessed as cell growth at 10^-6 M after 48 hrs by SRB assay; settings: MCF7, 48 h, read-out: Activity
U-251 [5] = assay: Cytotoxicity against human U251 cells assessed as cell growth at 10^-6 M after 48 hrs by SRB assay; settings: U-251, 48 h, read-out: Activity
COLO 205 = assay: Cytotoxicity against human COLO205 cells assessed as cell growth at 10^-4 M after 48 hrs by SRB assay; settings: COLO 205, 48 h, read-out: Activity
A498 [6] = assay: Cytotoxicity against human A498 cells after 48 hrs by SRB assay; settings: A498, 48 h
T47D = assay: Cytotoxicity against human T47D cells assessed as cell growth at 10^-4 M after 48 hrs by SRB assay; settings: read-out: Activity
DU-145 = assay: Cytotoxicity against human DU145 cells assessed as cell growth at 10^-6 M after 48 hrs by SRB assay; settings: DU-145, 48 h, read-out: Activity
OVCAR-3 [7] = assay: Cytotoxicity against human OVCAR3 cells assessed as cell growth at 10^-8 M after 48 hrs by SRB assay; settings: OVCAR-3, 48 h, read-out: Activity
SF-268 = assay: Cytotoxicity against human SF268 cells assessed as cell growth at 10^-8 M after 48 hrs by SRB assay; settings: SF-268, 48 h, read-out: Activity
[8] = Cytotoxicity against human Hs578T cells assessed as cell growth at 10^-6 M after 48 hrs by SRB assay; settings: Hs-578T, read-out: Activity
CCRF-CEM = assay: Cytotoxicity against human CCRF-CEM cells assessed as cell growth at 10^-4 M after 48 hrs by SRB assay; settings: read-out: Activity
[9] = Cytotoxicity against human Hs578T cells assessed as cell growth at 10^-4 M after 48 hrs by SRB assay; settings: Hs-578T, read-out: Activity
SW-620 = assay: Cytotoxicity against human SW620 cells assessed as cell growth at 10^-7 M after 48 hrs by SRB assay; settings: SW-620, 48 h, read-out: Activity
M14 [10] = assay: Cytotoxicity against human M14 cells assessed as cell growth at 10^-4 M after 48 hrs by SRB assay; settings: M14, 48 h, read-out: Activity
M14 [11] = assay: Cytotoxicity against human M14 cells after 48 hrs by SRB assay; settings: M14, 48 h
HCT-116 = assay: Cytotoxicity against human HCT116 cells assessed as cell growth at 10^-8 M after 48 hrs by SRB assay; settings: HCT-116, 48 h, read-out: Activity
SK-OV-3 = assay: Cytotoxicity against human SKOV3 cells assessed as cell growth at 10^-4 M after 48 hrs by SRB assay; settings: SK-OV-3, 48 h, read-out: Activity
MDA-MB-468 = assay: Cytotoxicity against human MDA-MB-468 cells assessed as cell growth at 10^-7 M after 48 hrs by SRB assay; settings: MDA-MB-468, 48 h, read-out: Activity
[12] = Cytotoxicity against human UO31 cells assessed as cell growth at 10^-8 M after 48 hrs by SRB assay; settings: UO-31, 48 h, read-out: Activity
A498 [13] = assay: Cytotoxicity against human A498 cells assessed as cell growth at 10^-4 M after 48 hrs by SRB assay; settings: A498, 48 h, read-out: Activity
SK-MEL-5 = assay: Cytotoxicity against human SK-MEL-5 cells assessed as cell growth at 10^-6 M after 48 hrs by SRB assay; settings: SK-MEL-5, 48 h, read-out: Activity
LOX IMVI = assay: Cytotoxicity against human LOXIMVI cells assessed as cell growth at 10^-7 M after 48 hrs by SRB assay; settings: read-out: Activity
SN12C = assay: Cytotoxicity against human SN12C cells after 48 hrs by SRB assay
HT-29 = assay: Cytotoxicity against human HT-29 cells assessed as cell growth at 10^-6 M after 48 hrs by SRB assay; settings: HT-29, 48 h, read-out: Activity
NCI-H226 = assay: Cytotoxicity against human NCI-H226 cells assessed as cell growth at 10^-8 M after 48 hrs by SRB assay; settings: NCI-H226, 48 h, read-out: Activity
BT-549 = assay: Cytotoxicity against human BT549 cells assessed as cell growth at 10^-4 M after 48 hrs by SRB assay; settings: BT-549, 48 h, read-out: Activity
KM12 [14] = assay: Cytotoxicity against human KM12 cells after 48 hrs by SRB assay; settings: KM12, 48 h
OVCAR-8 [15] = assay: Cytotoxicity against human OVCAR8 cells assessed as cell growth at 10^-6 M after 48 hrs by SRB assay; settings: OVCAR-8, 48 h, read-out: Activity
OVCAR-8 [16] = assay: Cytotoxicity against human OVCAR8 cells assessed as cell growth at 10^-7 M after 48 hrs by SRB assay; settings: OVCAR-8, 48 h, read-out: Activity
U-251 [17] = assay: Cytotoxicity against human U251 cells assessed as cell growth at 10^-4 M after 48 hrs by SRB assay; settings: U-251, 48 h, read-out: Activity
HOP-92 = assay: Cytotoxicity against human HOP92 cells assessed as cell growth at 10^-7 M after 48 hrs by SRB assay; settings: HOP-92, 48 h, read-out: Activity

## C=CCn1c(C)nc2ccc(Nc3nc(Nc4ccc5nc(C)n(CC=C)c5c4)c4ccccc4n3)cc21
[1]
  growth at 0.01 µM: 99%
NCI-H322M
  GI50: 1710 nM
  LC50: 6150 nM
  TGI: 3240 nM
SF-295
  growth at 100 µM: -21%
MDA-MB-435
  growth at 0.1 µM: 98%
IGROV-1
  growth at 100 µM: -25%
OVCAR-3 [2]
  growth at 0.1 µM: 96%
U-251 [3]
  growth at 0.01 µM: 96%
KM12 [4]
  growth at 0.1 µM: 92%
MCF7
  growth at 1 µM: 85%
U-251 [5]
  growth at 1 µM: 89%
COLO 205
  growth at 100 µM: -18%
A498 [6]
  GI50: 442 nM
  TGI: 2080 nM
T47D
  growth at 100 µM: -22%
DU-145
  growth at 1 µM: 104%
OVCAR-3 [7]
  growth at 0.01 µM: 99%
SF-268
  growth at 0.01 µM: 90%
[8]
  growth at 1 µM: 81%
CCRF-CEM
  growth at 100 µM: 2%
[9]
  growth at 100 µM: -15%
SW-620
  growth at 0.1 µM: 94%
M14 [10]
  growth at 100 µM: -7%
M14 [11]
  GI50: 1620 nM
  TGI: 3040 nM
HCT-116
  growth at 0.01 µM: 108%
SK-OV-3
  growth at 100 µM: -54%
MDA-MB-468
  growth at 0.1 µM: 92%
[12]
  growth at 0.01 µM: 84%
A498 [13]
  growth at 100 µM: -21%
SK-MEL-5
  growth at 1 µM: 91%
LOX IMVI
  growth at 0.1 µM: 91%
SN12C
  GI50: 1620 nM
  LC50: 5450 nM
  TGI: 2980 nM
HT-29
  growth at 1 µM: 101%
NCI-H226
  growth at 0.01 µM: 90%
BT-549
  growth at 100 µM: -32%
KM12 [14]
  GI50: 1640 nM
  TGI: 3080 nM
OVCAR-8 [15]
  growth at 1 µM: 80%
OVCAR-8 [16]
  growth at 0.1 µM: 102%
U-251 [17]
  growth at 100 µM: -22%
HOP-92
  growth at 0.1 µM: 86%

## C=CCn1c(C)nc2cc(Nc3nc(Nc4ccc5nc(C)n(CC=C)c5c4)c4ccccc4n3)ccc21
[1]
  growth at 0.01 µM: 103%
NCI-H322M
  GI50: 717 nM
  LC50: 4470 nM
  TGI: 2000 nM
SF-295
  growth at 100 µM: -85%
MDA-MB-435
  growth at 0.1 µM: 97%
IGROV-1
  growth at 100 µM: -43%
OVCAR-3 [2]
  growth at 0.1 µM: 101%
U-251 [3]
  growth at 0.01 µM: 97%
KM12 [4]
  growth at 0.1 µM: 98%
MCF7
  growth at 1 µM: -63%
U-251 [5]
  growth at 1 µM: -88%
COLO 205
  growth at 100 µM: -6%
A498 [6]
  GI50: 1660 nM
  LC50: 5500 nM
  TGI: 3030 nM
T47D
  growth at 100 µM: -13%
DU-145
  growth at 1 µM: 18%
OVCAR-3 [7]
  growth at 0.01 µM: 100%
SF-268
  growth at 0.01 µM: 95%
[8]
  growth at 1 µM: 94%
CCRF-CEM
  growth at 100 µM: -19%
[9]
  growth at 100 µM: -21%
SW-620
  growth at 0.1 µM: 98%
M14 [10]
  growth at 100 µM: -4%
M14 [11]
  GI50: 1430 nM
  TGI: 3240 nM
HCT-116
  growth at 0.01 µM: 106%
SK-OV-3
  growth at 100 µM: -29%
MDA-MB-468
  growth at 0.1 µM: 89%
[12]
  growth at 0.01 µM: 85%
A498 [13]
  growth at 100 µM: -85%
SK-MEL-5
  growth at 1 µM: 78%
LOX IMVI
  growth at 0.1 µM: 96%
SN12C
  GI50: 1280 nM
  TGI: 2900 nM
HT-29
  growth at 1 µM: -87%
NCI-H226
  growth at 0.01 µM: 93%
BT-549
  growth at 100 µM: -46%
KM12 [14]
  GI50: 223 nM
  LC50 (concentration killing 50% of cells): 1460 nM
  TGI: 513 nM
OVCAR-8 [15]
  growth at 1 µM: -11%
OVCAR-8 [16]
  growth at 0.1 µM: 101%
U-251 [17]
  growth at 100 µM: -31%
HOP-92
  growth at 0.1 µM: 91%
